Consider 31 compounds from US20200101068A1, “Heteroaryl Derivatives as PARP Inhibitors” (Lupin Limited, priority 2015, published 2020).

In this experiment the target is T1, PARP1 (Homo sapiens, UniProt P09874).
T1 construct: purchased BPS Bioscience
T1 sequence (P09874 whole entry): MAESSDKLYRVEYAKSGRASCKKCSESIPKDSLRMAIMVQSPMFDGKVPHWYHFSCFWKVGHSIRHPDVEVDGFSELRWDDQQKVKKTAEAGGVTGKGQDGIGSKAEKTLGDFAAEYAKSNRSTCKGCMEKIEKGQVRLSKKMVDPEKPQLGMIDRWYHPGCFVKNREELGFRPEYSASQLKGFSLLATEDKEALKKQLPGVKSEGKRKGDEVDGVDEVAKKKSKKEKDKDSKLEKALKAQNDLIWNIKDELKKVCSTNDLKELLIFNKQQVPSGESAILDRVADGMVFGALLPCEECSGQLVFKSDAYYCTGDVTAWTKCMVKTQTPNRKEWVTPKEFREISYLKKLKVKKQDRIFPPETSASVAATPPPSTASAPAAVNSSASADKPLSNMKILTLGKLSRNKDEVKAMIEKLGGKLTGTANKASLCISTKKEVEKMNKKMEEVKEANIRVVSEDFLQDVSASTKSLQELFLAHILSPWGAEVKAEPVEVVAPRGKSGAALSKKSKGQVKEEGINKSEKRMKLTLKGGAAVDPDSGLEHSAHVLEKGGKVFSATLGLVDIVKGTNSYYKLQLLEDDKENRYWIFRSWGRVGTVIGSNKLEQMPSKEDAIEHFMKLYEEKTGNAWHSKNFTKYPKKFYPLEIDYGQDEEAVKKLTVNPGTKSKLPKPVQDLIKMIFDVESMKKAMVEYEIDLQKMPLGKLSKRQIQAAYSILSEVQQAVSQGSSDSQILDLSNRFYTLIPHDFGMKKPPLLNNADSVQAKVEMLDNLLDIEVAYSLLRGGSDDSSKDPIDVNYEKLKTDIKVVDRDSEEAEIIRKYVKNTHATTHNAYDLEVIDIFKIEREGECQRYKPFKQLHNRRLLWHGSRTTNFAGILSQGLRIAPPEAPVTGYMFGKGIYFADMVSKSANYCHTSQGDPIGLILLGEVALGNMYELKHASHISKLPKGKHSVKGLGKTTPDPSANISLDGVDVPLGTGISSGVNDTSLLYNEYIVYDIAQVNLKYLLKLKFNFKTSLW
Description: PARP1 biochemical assay (BPS Bioscience kit, chemiluminescent). The conditions noted are these: histone-coated plate, biotinylated NAD+, 60 min at 25° C., luminescence; read-out: PARP 1 inhibition IC50. On the procedure: Example 16: PARP1 Biochemical Assay
The assay was performed using BPS Bioscience kit. The 96-well strip plate was coated with 50 μl of histone mixture and incubated at 4° C. overnight. The next day, the wells were blocked by adding 100 μl of blocking buffer. The plate was washed and 25 μl of appropriate concentration of PARP1 (25-75 ng/well) was added in all of the Test and Positive control wells. In the Negative control wells, the enzyme was replaced with 25 μl of water. 5 μl each of 10× PARP assay buffer and activated DNA was added in all the wells (Test, Positive and Negative control wells). 10× concentration of the test compounds were prepared and 5 μl test compounds were added to the respective wells. The reaction volume was made up to 45 μl by adding water to all of the wells. 5 μl of 10× PARP assay mixture containing biotinilated NAD^+ was added in each well and the plate was incubated at ambient temperature (25° C.) for 60 min. After washing the plate 50 μl of Streptavidin-HRP was added in each well, the plate was incubated at RT for 30 min. The plate was washed and the luminescence was read in PHERAStar plate reader after adding 100 μl of chemiluminescent substrate.
PARP inhibition was calculated using the following formula:
% PARP inhibition=100−[(RLU test compound treated sample−RLU negative control)/(RLU Positive control−RLU negative control)×100]
IC50 values were calculated by plotting % inhibition against the respective concentrations of test compounds using GraphPad Prism 5.
Turning to `N#Cc1ccc(N2CCN([C@H]3C=C(c4cc5scnc5c(=O)[nH]4)CC3)CC2)cc1` [Compound 44, (R)-4-(4-(3-(4-oxo-4,5-dihydrothiazolo[4,5-c]pyridin-6-yl)cyclopent-2-en-1-yl)piperazin-1-yl)benzonitrile], the IC50 fell in the range of 0.5 to 5 nM.
The result for `Cc1c(C2=C[C@H](N3CCN(c4ccc(C#N)cc4)CC3)CC2)[nH]c(=O)c2cccnc12` [Compound 9, (R)-4-(4-(3-(8-methyl-5-oxo-5,6-dihydro-1,6-naphthyridin-7-yl)cyclopent-2-en-1-yl)piperazin-1-yl)benzonitrile] reads 0.5 to 5 nM.
Consider `N#Cc1ccc(N2C[C@@H]3C[C@H]2CN3C2C=C(c3cc4ncccc4c(=O)[nH]3)CC2)cc1` (single isomer, unassigned) [Compound 16], for which the IC50 fell in the range of 5.1 to 50 nM.
Regarding `N#Cc1ccc(N2CCN([C@H]3C=C(c4cc5ncc(N)cc5c(=O)[nH]4)CC3)CC2)cc1` [Compound 7, (R)-4-(4-(3-(3-amino-5-oxo-5,6-dihydro-1,6-naphthyridin-7-yl)cyclopent-2-en-1-yl)piperazin-1-yl)benzonitrile], the IC50 was 0.5 to 5 nM.
The result for `C[C@@H]1CN(c2ccc(C#N)cc2)CCN1C1C=C(c2cc3ncccc3c(=O)[nH]2)CC1` (single isomer, unassigned) [Compound 14] reads 0.5 to 5 nM; that for `O=C1CCc2cc(N3CCN([C@H]4C=C(c5cc6ncccc6c(=O)[nH]5)CC4)CC3)ccc21` [Compound 29, (R)-7-(3-(4-(1-oxo-2,3-dihydro-1H-inden-5-yl)piperazin-1-yl)cyclopent-1-en-1-yl)-1,6-naphthyridin-5(6H)-one], 0.5 to 5 nM.
As for `Cc1ccc(N2CCN([C@H]3C=C(c4cc5ncccc5c(=O)[nH]4)CC3)CC2)cc1` [Compound 26, (R)-7-(3-(4-(p-tolyl)piperazin-1-yl)cyclopent-1-en-1-yl)-1,6-naphthyridin-5(6H)-one], the IC50 lay within 0.5 to 5 nM.
Regarding `O=c1[nH]c(C2=C[C@H](N3CCN(c4nccs4)CC3)CC2)cc2sccc12` [Compound 51, (R)-6-(3-(4-(thiazol-2-yl)piperazin-1-yl)cyclopent-1-en-1-yl)thieno[3,2-c]pyridin-4(5H)-one], the IC50 was in the range of 5.1 to 50 nM.
In the case of `N#Cc1ccc(N2CCN([C@H]3C=C(c4cc5ncsc5c(=O)[nH]4)CC3)CC2)c(F)c1` [Compound 52, (R)-3-fluoro-4-(4-(3-(4-oxo-4,5-dihydrothiazolo[5,4-c]pyridin-6-yl)cyclopent-2-en-1-yl)piperazin-1-yl)benzonitrile], the IC50 was in the range of 0.5 to 5 nM.
In the case of `O=c1[nH]c(C2=C[C@H](N3CCN(c4ccc(Cl)cc4)CC3)CC2)cc2ncccc12` [Compound 24, (R)-7-(3-(4-(4-chlorophenyl)piperazin-1-yl)cyclopent-1-en-1-yl)-1,6-naphthyridin-5(6H)-one], the IC50 is 0.5 to 5 nM.
Take `N#Cc1ccc(N2CCN([C@H]3C=C(c4cc5sccc5c(=O)[nH]4)CC3)CC2)nc1` [Compound 50, (R)-6-(4-(3-(4-oxo-4,5-dihydrothieno[3,2-c]pyridin-6-yl)cyclopent-2-en-1-yl)piperazin-1-yl)nicotinonitrile]: the IC50 is 0.5 to 5 nM.
For the compound `N#Cc1ccc(N2CCN([C@H]3C=C(c4cc5ccncc5c(=O)[nH]4)CC3)CC2)cc1` [Compound 38, (R)-4-(4-(3-(1-oxo-1,2-dihydro-2,7-naphthyridin-3-yl)cyclopent-2-en-1-yl)piperazin-1-yl)benzonitrile], the IC50 lay within 0.5 to 5 nM.
The result for `O=c1[nH]c(C2=C[C@H](N3CCN(c4ccccc4)CC3)CC2)cc2sccc12` [Compound 48, (R)-6-(3-(4-phenylpiperazin-1-yl)cyclopent-1-en-1-yl)thieno[3,2-c]pyridin-4(5H)-one] reads 0.5 to 5 nM; that for `Cc1c(C2=C[C@@H](N3CCN(c4ccc(C#N)cc4)CC3)CC2)[nH]c(=O)c2cccnc12` [Compound 10, (S)-4-(4-(3-(8-methyl-5-oxo-5,6-dihydro-1,6-naphthyridin-7-yl)cyclopent-2-en-1-yl)piperazin-1-yl)benzonitrile], 0.5 to 5 nM; that for `COc1ccc(N2CCN([C@H]3C=C(c4cc5ncccc5c(=O)[nH]4)CC3)CC2)cc1` [Compound 25, (R)-7-(3-(4-(4-methoxyphenyl)piperazin-1-yl)cyclopent-1-en-1-yl)-1,6-naphthyridin-5(6H)-one], 0.5 to 5 nM.
Next, `N#Cc1ccc(N2CCN([C@@H]3CC[C@H](c4cc5ncccc5c(=O)[nH]4)C3)CC2)cc1` (single isomer, unassigned) [Compound 11]: 0.5 to 5 nM; `O=c1[nH]c(C2=C[C@H](N3CCN(c4ccc(F)cc4F)CC3)CC2)cc2ncccc12` [Compound 39, (R)-7-(3-(4-(2,4-difluorophenyl)piperazin-1-yl)cyclopent-1-en-1-yl)-1,6-naphthyridin-5(6H)-one]: 0.5 to 5 nM; `NC(=O)c1ccc(N2CCN([C@H]3C=C(c4cc5ncccc5c(=O)[nH]4)CC3)CC2)cc1` [Compound 19, (R)-4-(4-(3-(5-oxo-5,6-dihydro-1,6-naphthyridin-7-yl)cyclopent-2-en-1-yl)piperazin-1-yl)benzamide]: 0.5 to 5 nM.
For the compound `CCOC(=O)c1ccc(N2CCN([C@H]3C=C(c4cc5ncccc5c(=O)[nH]4)CC3)CC2)cc1` [Compound 20, Ethyl (R)-4-(4-(3-(5-oxo-5,6-dihydro-1,6-naphthyridin-7-yl)cyclopent-2-en-1-yl)piperazin-1-yl)benzoate], the IC50 lay within 0.5 to 5 nM.
Turning to `N#Cc1ccc(N2CCN([C@H]3C=C(c4cc5nccnc5c(=O)[nH]4)CC3)CC2)cc1` [Compound 41, (R)-4-(4-(3-(5-oxo-5,6-dihydropyrido[3,4-b]pyrazin-7-yl)cyclopent-2-en-1-yl)piperazin-1-yl)benzonitrile], the 50% inhibitory concentration (IC50) is 5.1 to 50 nM.
The result for `N#Cc1ccc(N2CCN([C@H]3C=C(c4cc5ncccc5c(=O)[nH]4)CC3)CC2)c(F)c1` [Compound 23, (R)-3-fluoro-4-(4-(3-(5-oxo-5,6-dihydro-1,6-naphthyridin-7-yl)cyclopent-2-en-1-yl)piperazin-1-yl)benzonitrile] reads 0.5 to 5 nM; that for `N#Cc1ccc(N2CCN([C@H]3C=C(c4cc5ncsc5c(=O)[nH]4)CC3)CC2)cc1` [Compound 43, (R)-4-(4-(3-(4-oxo-4,5-dihydrothiazolo[5,4-c]pyridin-6-yl)cyclopent-2-en-1-yl)piperazin-1-yl)benzonitrile], 0.5 to 5 nM; that for `O=c1[nH]c(C2=C[C@H](N3CCN(c4ccc(F)cc4)CC3)CC2)cc2cccn12` [Compound 55, (R)-3-(3-(4-(4-fluorophenyl)piperazin-1-yl)cyclopent-1-en-1-yl)pyrrolo [1,2-c]pyrimidin-1(2H)-one], 0.5 to 5 nM.
As for `N#Cc1ccc(N2CCN([C@H]3C=C(c4cc5ncccc5c(=O)[nH]4)CC3)CC2)nc1` [Compound 34, (R)-6-(4-(3-(5-oxo-5,6-dihydro-1,6-naphthyridin-7-yl)cyclopent-2-en-1-yl)piperazin-1-yl)nicotinonitrile], the concentration for half-maximal inhibition (IC50) was 0.5 to 5 nM.
`O=c1[nH]c(C2=C[C@H](N3CCN(c4ccc5c(c4)CCC5)CC3)CC2)cc2ncccc12` [Compound 30, (R)-7-(3-(4-(2,3-dihydro-1H-inden-5-yl)piperazin-1-yl)cyclopent-1-en-1-yl)-1,6-naphthyridin-5(6H)-one]: the IC50 was 0.5 to 5 nM.
The result for `N#Cc1ccc(N2CCN([C@H]3C=C(c4cc5ncccc5c(=O)[nH]4)CC3)CC2=O)cc1` [Compound 13, (R)-4-(2-oxo-4-(3-(5-oxo-5,6-dihydro-1,6-naphthyridin-7-yl)cyclopent-2-en-1-yl)piperazin-1-yl)benzonitrile] reads 5.1 to 50 nM.
Take `N#Cc1cnc(N2CCN([C@H]3C=C(c4cc5ncccc5c(=O)[nH]4)CC3)CC2)s1` [Compound 35, (R)-2-(4-(3-(5-oxo-5,6-dihydro-1,6-naphthyridin-7-yl)cyclopent-2-en-1-yl)piperazin-1-yl)thiazole-5-carbonitrile]: the half-maximal inhibitory concentration (IC50) is 0.5 to 5 nM.
Take `C[C@@H]1CN(c2ccc(C#N)cc2)CCN1[C@@H]1C=C(c2cc3ncccc3c(=O)[nH]2)CC1` (racemic) [Compound 15, 4-((R)-3-methyl-4-((S/R)-3-(5-oxo-5,6-dihydro-1,6-naphthyridin-7-yl)cyclopent-2-en-1-yl)piperazin-1-yl)benzonitrile]: the IC50 was in the range of 5.1 to 50 nM.
As to `Cc1ccc2c(=O)[nH]c(C3=C[C@H](N4CCN(c5ccc(C#N)cc5)CC4)CC3)cc2n1` [Compound 6, (R)-4-(4-(3-(2-methyl-5-oxo-5,6-dihydro-1,6-naphthyridin-7-yl)cyclopent-2-en-1-yl)piperazin-1-yl)benzonitrile], the IC50 lay in the range of 0.5 to 5 nM.
The result for `O=C1OCc2cc(N3CCN([C@H]4C=C(c5cc6ncccc6c(=O)[nH]5)CC4)CC3)ccc21` [Compound 31, (R)-7-(3-(4-(1-oxo-1,3-dihydroisobenzofuran-5-yl)piperazin-1-yl)cyclopent-1-en-1-yl)-1,6-naphthyridin-5(6H)-one] reads 0.5 to 5 nM.
On to `N#Cc1ccc(N2CCN([C@H]3C=C(c4cc5cnccc5c(=O)[nH]4)CC3)CC2)cc1` [Compound 36, (R)-4-(4-(3-(1-oxo-1,2-dihydro-2,6-naphthyridin-3-yl)cyclopent-2-en-1-yl)piperazin-1-yl)benzonitrile], for which the IC50 fell in the range of 0.5 to 5 nM.
